Laboratory results published in paper PMC3582038 (Bioorganic & medicinal chemistry, 2012).
≈ marks a conversion by molar mass, not a printed value. Marks after values point to notes of the source that are not given here.

Key:
[1] = tested on: Strep. pyogenes ATCC 700294; assay: Antibacterial spectrum MIC, S. pyogenes; type: cell-based; settings: Streptococcus pyogenes, ATCC700294, read-out: MIC S. pyogenes
M. tuberculosis = assay: Antituberculosis MIC, microbroth dilution; type: cell-based; settings: M. tuberculosis MIC relative to compound 11
E. coli K12 ΔtolC = type: cell-based; settings: efflux pump deficient
[2] = rats, based on a 10 mg/kg IV dose; ref [21],[22] (Linezolid), [23],[24] (Ofloxacin); cited from earlier work
[3] = In vivo pharmacokinetics in rats; settings: for half-life: male, Sprague-Dawley, rat, plasma, iv, 10 mg/kg; for toxicity in both administration modes: IV 10 mg/kg and PO 100 mg/kg; for unbound peak plasma concentration as multiple of the MIC: peak plasma concentration converted to unbound; for fe (fraction of dose excreted unchanged in urine): mean (SD)

SMILES | MIC E. coli ΔtolC (E. coli K12 ΔtolC) | toxicity in both administration modes ([3]; rats) | unbound peak plasma concentration as multiple of the MIC ([3]; rats, IV 10 mg/kg) | other results
O=C1COCCN1c1ccc(C2CC(c3ccc([N+](=O)[O-])o3)=NO2)cn1 (stereo not shown) [Compound 19, 4-(5-(3-(5-nitrofuran-2-yl)-4,5-dihydroisoxazol-5-yl)pyridin-2-yl)morpholin-3-one] |  |  |  | MIC [1]: 1000 µg/mL (≈ 2800 µM)
O=[N+]([O-])c1ccc(C2=NOC(c3ccc(N4CC[S+]([O-])CC4)cc3)C2)o1 (stereo not shown) [Compound 12, 4-(4-(3-(5-nitrofuran-2-yl)-4,5-dihydroisoxazol-5-yl)phenyl)thiomorpholine 1-oxide] |  |  |  | fold weaker MIC value than 11 (M. tuberculosis): 8 fold
O=[N+]([O-])c1ccc(C2=NOC(c3ccc(N4CCOCC4)c(F)c3)C2)o1 (stereo not shown) [Compound 8, 4-(2-Fluoro-4-(3-(5-nitrofuran-2-yl)-4,5-dihydroisoxazol-5-yl)phenyl)morpholine] | 6.25 µg/mL (≈ 17.3 µM) |  |  | 
CC1COc2c(N3CCN(C)CC3)c(F)cc3c(=O)c(C(=O)O)cn1c23 (stereo not shown) [Ofloxacin] |  |  |  | AUCo0-∞ [2]: 6.1–11.8 ^* hr mg/L
CN1CCN(c2ccc(C3CC(c4ccc([N+](=O)[O-])o4)=NO3)cn2)C(=O)C1 (stereo not shown) [Compound 16, 4-methyl-1-(5-(3-(5-nitrofuran-2-yl)-4,5-dihydroisoxazol-5-yl)pyridin-2-yl)piperazin-2-one] | 6.25 µg/mL (≈ 16.8 µM) |  |  | 
O=[N+]([O-])c1ccc(C2=NOC(c3ccc(N4CCOCC4)nc3)C2)o1 (stereo not shown) [Compound 7, 4-(5-(3-(5-Nitrofuran-2-yl)-4,5-dihydroisoxazol-5-yl)pyridin-2-yl)morpholine] | 6.25 µg/mL (≈ 18.2 µM) | non-toxic | 9.8 times the MIC | half-life [3]: 36.6 to 43.2 min; fe (fraction of dose excreted unchanged in urine) ([3]; rats): 0.021 (0.01) %
CN1CCN(c2ccc(C3CC(c4ccc([N+](=O)[O-])o4)=NO3)cc2)C(=O)C1 (stereo not shown) [Compound 15, 4-methyl-1-(4-(3-(5-nitrofuran-2-yl)-4,5-dihydroisoxazol-5-yl)phenyl)piperazin-2-one] |  |  | 0.71 times the MIC | half-life [3]: 36.6 to 43.2 min; toxicity observed after IV dosing ([3]; rats, IV 10 mg/kg): seizures and death in one animal; deaths after oral administration ([3]; rats, PO 100 mg/kg): No animals died; fe (fraction of dose excreted unchanged in urine) ([3]; rats): 0.68 (0.44) %
O=[N+]([O-])c1ccc(C2=NOC(c3ccc(N4CCCCC4)cc3)C2)o1 (stereo not shown) [Compound 1] |  | non-toxic | 4.6 times the MIC | 
O=[N+]([O-])c1ccc(C2=NOC(c3ccc(N4CCOCC4)cc3)C2)o1 (stereo not shown) [Compound 6, 4-(4-(3-(5-Nitrofuran-2-yl)-4,5-dihydroisoxazol-5-yl)phenyl)morpholine] |  | non-toxic | 5.0 times the MIC | 
